Target: Proto-oncogene tyrosine-protein kinase Src (Homo sapiens, UniProt P12931)
Test: Inhibition of Src

Sequence of Proto-oncogene tyrosine-protein kinase Src (P12931 2-536 limits assumed): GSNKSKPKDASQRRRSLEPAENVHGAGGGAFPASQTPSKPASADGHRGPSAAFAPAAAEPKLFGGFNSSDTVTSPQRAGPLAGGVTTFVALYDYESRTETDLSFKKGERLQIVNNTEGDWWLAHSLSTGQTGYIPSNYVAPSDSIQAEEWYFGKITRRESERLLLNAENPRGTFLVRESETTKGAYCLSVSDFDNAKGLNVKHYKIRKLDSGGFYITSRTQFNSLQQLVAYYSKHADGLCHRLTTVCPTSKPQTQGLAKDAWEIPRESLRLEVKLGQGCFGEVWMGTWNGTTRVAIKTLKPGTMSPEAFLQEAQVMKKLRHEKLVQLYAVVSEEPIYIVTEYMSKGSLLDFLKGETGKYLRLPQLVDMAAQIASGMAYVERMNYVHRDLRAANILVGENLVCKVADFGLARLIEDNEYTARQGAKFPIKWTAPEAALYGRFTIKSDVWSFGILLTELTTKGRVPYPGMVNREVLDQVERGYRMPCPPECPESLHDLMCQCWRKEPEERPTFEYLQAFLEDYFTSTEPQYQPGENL

COc1cc(Nc2c(C#N)cnc3cc(-c4ncccc4CN4CCOCC4)ccc23)c(Cl)cc1Cl
IC50: 950 nM

From ChEMBL document CHEMBL1155307, “4-Anilino-7-pyridyl-3-quinolinecarbonitriles as Src kinase inhibitors” (Bioorg Med Chem Lett, 2009)
